The structures appear in SMILES notation. pIC50: −log10 of the molar value.

The target of the assay is T1, human LPA1 (Homo sapiens, UniProt Q92633).
T1 construct: the full-length cDNA for human LPA1 was obtained by PCR of the reverse transcription reaction; expressed in transfected cells
The assay is described as follows: LPA1 calcium flux assay (HLPA1 Ca Flux). Format: cell-based. The settings on record: Human LPA1 expressing CHO cells, stimulated with 10 nM LPA. The method, then: A 1.1 kb cDNA encoding the human LPA1 receptor was cloned from human lung. Human lung RNA (Clontech Laboratories, Inc. USA) was reverse transcribed using the RETROscript kit (Ambion, Inc.) and the full-length cDNA for human LPA1 was obtained by PCR of the reverse transcription reaction. The nucleotide sequence of the cloned human LPA1 was determined by sequencing and confirmed to be identical to the published human LPA1 sequence (An et al. Biochem. Biophys. Res. Commun. 231:619 (1997). The cDNA was cloned into the pcDNAS/FRT expression plasmid and transfected in CHO cells using lipofectamine 2000 (Invitrogen Corp., USA). Clones stably expressing human LPA1 were selected using hygromycin and identified as cells that show Ca-influx in response to LPA.
Human LPA1 or LPA3 expressing CHO cells are seeded at 20,000-45,000 cells per well in a 96-well poly-D-lysine coated plate one or two days before the assay. Prior to the assay, the cells are washed once with PBS and then cultured in serum-free media overnight. On the day of the assay, a calcium indicator dye (Calcium 4, Molecular Devices) in assay buffer (HBSS with Ca^2+ and Mg^2+ and containing 20 mM Hepes and 0.3% fatty-acid free human serum albumin) is added to each well and incubation continued for 1 hour at 37° C. 10 μl of test compounds in 2.5% DMSO are added to the cells and incubation continued at room temperature for 30 minutes. Cells are the stimulated by the addition of 10 nM LPA and intracellular Ca^2+ measured using the Flexstation 3 (Molecular Devices). IC50s are determined using Graphpad prism analysis of drug titration curves.
For orientation: A change in cytosolic calcium serves as a functional read-out for many receptors and channels.

T1 sequence (Q92633 whole entry): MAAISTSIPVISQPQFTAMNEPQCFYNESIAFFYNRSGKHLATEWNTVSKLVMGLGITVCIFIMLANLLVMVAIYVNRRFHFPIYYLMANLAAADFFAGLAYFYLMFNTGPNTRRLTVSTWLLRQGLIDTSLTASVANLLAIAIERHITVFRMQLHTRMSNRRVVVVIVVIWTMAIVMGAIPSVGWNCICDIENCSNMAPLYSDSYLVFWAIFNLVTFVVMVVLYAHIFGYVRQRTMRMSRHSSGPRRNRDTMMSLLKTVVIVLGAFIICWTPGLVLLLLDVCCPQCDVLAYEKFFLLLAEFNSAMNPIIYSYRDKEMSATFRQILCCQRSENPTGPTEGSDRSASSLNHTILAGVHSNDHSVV

Usually pIC50 stands for −log10 of the IC50, conventionally taken in molar units. On to `Cc1noc(-c2ccc(Cc3cccc(C(=O)O)c3)cc2)c1NC(=O)OCc1ccccc1Br` [Compound 1-6, 3-{4-[4-(2-Bromo-benzyloxycarbonylamino)-3-methyl-isoxazol-5-yl]-benzyl}-benzoic acid], for which the pIC50 was 4.30 to 6.00.

Turning to `Cc1noc(-c2ccc(-c3cccc(C(=O)O)c3)cc2)c1NC(=O)O[C@H](C)c1ccccn1` [Compound 1-11], the pIC50 is 4.30 to 6.00. As for `Cc1cccc(COC(=O)Nc2c(C)noc2-c2ccc(-c3cccc(C(=O)O)c3)cc2)n1` [Compound 1-13, 4′-[3-Methyl-4-(6-methyl-pyridin-2-ylmethoxycarbonylamino)-isoxazol-5-yl]-biphenyl-3-carboxylic acid], the figure is 4.30 to 6.00; as for `Cc1noc(-c2ccc(Cc3cc(C(=O)O)ccc3Cl)cc2)c1NC(=O)OC(C)c1ccccc1Cl` (stereo not drawn) [Compound 1-14, 4-Chloro-3-(4-{4-[1-(2-chloro-phenyl)-ethoxycarbonylamino]-3-methyl-isoxazol-5-yl}-benzyl)-benzoic acid], 6.00 to 6.52; as for `Cc1noc(-c2ccc(-c3cccc(C(=O)O)c3)cc2)c1NC(=O)OC1CCc2ccccc21` (stereo not drawn) [Compound 1-16, 4′-[4-(Indan-1-yloxycarbonylamino)-3-methyl-isoxazol-5-yl]-biphenyl-3-carboxylic acid], under 4.30.

As to `Cc1noc(-c2ccc(CSc3cccc(CC(=O)O)c3)cc2)c1NC(=O)OC(C)c1ccccc1Cl` (stereo not drawn) [Compound 1-18, [3-(4-{4-[1-(2-Chloro-phenyl)-ethoxycarbonylamino]-3-methyl-isoxazol-5-yl}-benzylsulfanyl)-phenyl]-acetic acid], the pIC50 was over 6.52. As for `Cc1noc(-c2ccc(Cc3ccccc3CC(=O)O)cc2)c1NC(=O)OC(C)c1ccccc1Cl` (stereo not drawn) [Compound 1-22, [2-(4-{4-[1-(2-Chloro-phenyl)-ethoxycarbonylamino]-3-methyl-isoxazol-5-yl}-benzyl)-phenyl]-acetic acid], the figure is over 6.52; as for `Cc1noc(-c2ccc(-c3ccc(CC(=O)O)cc3)cc2)c1NC(=O)OC(C)Cc1ccccc1` (stereo not drawn) [Compound 1-29, {4′-[3-Methyl-4-(1-methyl-2-phenyl-ethoxycarbonylamino)-isoxazol-5-yl]-biphenyl-4-yl}-acetic acid], 6.00 to 6.52. The value for `Cc1noc(-c2cccc(-c3ccccc3C(=O)O)c2)c1NC(=O)OC(C)c1ccccc1Cl` (stereo not drawn) [Compound 1-32, 3′-{4-[1-(2-Chloro-phenyl)-ethoxycarbonylamino]-3-methyl-isoxazol-5-yl}-biphenyl-2-carboxylic acid] was 6.00 to 6.52; that for `Cc1noc(-c2cccc(-c3ccc(C(=O)O)nc3)c2)c1NC(=O)OC(C)c1ccccc1Cl` (stereo not drawn) [Compound 1-34, 5-(3-{4-[1-(2-Chloro-phenyl)-ethoxycarbonylamino]-3-methyl-isoxazol-5-yl}-phenyl)-pyridine-2-carboxylic acid] was 6.00 to 6.52; that for `Cc1noc(-c2cccc(-c3cc(C(=O)O)ccn3)c2)c1NC(=O)OC(C)c1ccccc1Cl` (stereo not drawn) [Compound 1-35, 2-(3-{4-[1-(2-Chloro-phenyl)-ethoxycarbonylamino]-3-methyl-isoxazol-5-yl}-phenyl)-isonicotinic acid] was 6.00 to 6.52. For `Cc1noc(-c2cccc(-c3cccc(C(=O)O)n3)c2)c1NC(=O)OC(C)c1ccccc1Cl` (stereo not drawn) [Compound 1-36, 6-(3-{4-[1-(2-Chloro-phenyl)-ethoxycarbonylamino]-3-methyl-isoxazol-5-yl}-phenyl)-pyridine-2-carboxylic acid], the pIC50 is 6.00 to 6.52. The value for `Cc1noc(-c2cccc(-c3cncc(C(=O)O)c3)c2)c1NC(=O)OC(C)c1ccccc1Cl` (stereo not drawn) [Compound 1-37, 5-(3-{4-[1-(2-Chloro-phenyl)-ethoxycarbonylamino]-3-methyl-isoxazol-5-yl}-phenyl)-nicotinic acid] was 4.30 to 6.00. As for `COc1ncc(CC(=O)O)cc1-c1cccc(-c2onc(C)c2NC(=O)OC(C)c2ccccc2Cl)c1` (stereo not drawn) [Compound 1-38, [5-(3-{4-[1-(2-Chloro-phenyl)-ethoxycarbonylamino]-3-methyl-isoxazol-5-yl}-phenyl)-6-methoxy-pyridin-3-yl]acetic acid], the figure is 4.30 to 6.00; as for `Cc1noc(-c2cccc(-c3ccc(CC(=O)O)cc3)c2)c1NC(=O)OC(C)c1ccccc1Cl` (stereo not drawn) [Compound 1-39, (3′-{4-[1-(2-Chloro-phenyl)-ethoxycarbonylamino]-3-methyl-isoxazol-5-yl}-biphenyl-4-yl)-acetic acid], 4.30 to 6.00. As for `Cc1noc(-c2cccc(-c3ccc4c(ccn4CC(=O)O)c3)c2)c1NC(=O)OC(C)c1ccccc1Cl` (stereo not drawn) [Compound 1-40, [5-(3-{4-[1-(2-Chloro-phenyl)-ethoxycarbonylamino]-3-methyl-isoxazol-5-yl}-phenyl)-indol-1-yl]-acetic acid], the figure is under 4.30; as for `Cc1noc(-c2cccc(-c3cncc(CC(=O)O)c3)c2)c1NC(=O)OC(C)c1ccccc1Cl` (stereo not drawn) [Compound 1-41, [5-(3-{4-[1-(2-Chloro-phenyl)-ethoxycarbonylamino]-3-methyl-isoxazol-5-yl}-phenyl)-pyridin-3-yl]acetic acid], 4.30 to 6.00.

With `Cc1noc(-c2cccc(-c3cc(CC(=O)O)ccc3F)c2)c1NC(=O)OC(C)c1ccccc1Cl` (stereo not drawn) [Compound 1-42, (3′-{4-[1-(2-Chloro-phenyl)-ethoxycarbonylamino]-3-methyl-isoxazol-5-yl}-6-fluoro-biphenyl-3-yl)-acetic acid], the pIC50 is 4.30 to 6.00. For the molecule `Cc1noc(-c2cccc(-c3ccc(F)c(CC(=O)O)c3)c2)c1NC(=O)OC(C)c1ccccc1Cl` (stereo not drawn) [Compound 1-43, (3′-{4-[1-(2-Chloro-phenyl)-ethoxycarbonylamino]-3-methyl-isoxazol-5-yl}-4-fluoro-biphenyl-3-yl)-acetic acid], the pIC50 is 4.30 to 6.00. As for `Cc1noc(-c2cccc(-c3ccccc3CC(=O)O)c2)c1NC(=O)OC(C)c1ccccc1Cl` (stereo not drawn) [Compound 1-44, (3′-{4-[1-(2-Chloro-phenyl)-ethoxycarbonylamino]-3-methyl-isoxazol-5-yl}-biphenyl-2-yl)-acetic acid], the figure is 4.30 to 6.00; as for `Cc1noc(-c2cccc(C3CCC(C(=O)O)CC3)c2)c1NC(=O)OC(C)c1ccccc1Cl` (stereo not drawn) [Compound 1-46, 4-(3-{4-[1-(2-Chloro-phenyl)-ethoxycarbonylamino]-3-methyl-isoxazol-5-yl}-phenyl)-cyclohexanecarboxylic acid], over 6.52. Turning to `CCOC(=O)Cc1ccc(-c2ccc(-c3onc(C)c3NC(=O)OC(C)c3ccccc3F)cn2)cc1` (stereo not drawn) [Compound 1-47], the pIC50 is 6.00 to 6.52. Regarding `Cc1noc(-c2ccc(-c3ccccc3C(=O)O)cc2)c1NC(=O)OC(C)c1ccccc1Cl` (stereo not drawn) [Compound 1-52, 4′-{4-[1-(2-Chloro-phenyl)-ethoxycarbonylamino]-3-methyl-isoxazol-5-yl}-biphenyl-2-carboxylic acid], the pIC50 was 4.30 to 6.00. On to `Cc1noc(-c2ccc(-c3cncc(C(=O)O)c3)cc2)c1NC(=O)OC(C)c1ccccc1Cl` (stereo not drawn) [Compound 1-55, 5-(4-{4-[1-(2-Chloro-phenyl)-ethoxycarbonylamino]-3-methyl-isoxazol-5-yl}-phenyl)-nicotinic acid], for which the pIC50 was over 6.52.

`CCOC(=O)C(C)c1ccc(-c2ccc(-c3onc(C)c3NC(=O)OC(C)c3ccccc3Cl)cc2)cc1` (stereo not drawn) [Compound 1-70, 2-(4′-{4-[1-(2-Chloro-phenyl)-ethoxycarbonylamino]-3-methyl-isoxazol-5-yl}-biphenyl-4-yl)-propionic acid ethyl ester]: the pIC50 is over 6.52.

Turning to `Cc1noc(-c2ccc(-c3ccc(C(C)(C)C(=O)O)cc3)cc2)c1NC(=O)OC(C)c1ccccc1Cl` (stereo not drawn) [Compound 1-72, 2-(4′-{4-[1-(2-Chloro-phenyl)-ethoxycarbonylamino]-3-methyl-isoxazol-5-yl}-biphenyl-4-yl)-2-methyl-propionic acid], the pIC50 was over 6.52.

As for `Cc1noc(-c2ccc(-c3ccc(CC(=O)O)cc3)cn2)c1NC(=O)OC(C)c1ccccc1Cl` (stereo not drawn) [Compound 1-73], the pIC50 is over 6.52. Take `Cc1noc(-c2ccc(-c3ccc(CCCC(=O)O)cc3)cc2)c1NC(=O)OC(C)c1ccccc1Cl` (stereo not drawn) [Compound 1-75, 4-(4′-{4-[1-(2-Chloro-phenyl)-ethoxycarbonylamino]-3-methyl-isoxazol-5-yl}-biphenyl-4-yl)-butyric acid]: the pIC50 is over 6.52.

For `Cc1noc(-c2ccc(Cc3cc(CC(=O)O)ccc3F)cc2)c1NC(=O)O[C@H](C)c1ccccc1F` [Compound 1-82, [4-Fluoro-3-(4-{4-[(R)-1-(2-fluoro-phenyl)-ethoxycarbonylamino]-3-methyl-isoxazol-5-yl}-benzyl)-phenyl]-acetic acid], the pIC50 is 6.00 to 6.52. Regarding `CCOC(=O)Cc1ccc(Oc2ccc(-c3onc(C)c3NC(=O)O[C@H](C)c3ccccc3F)cc2)cc1` [Compound 1-83, [4-(4-{4-[(R)-1-(2-Fluoro-phenyl)-ethoxycarbonylamino]-3-methyl-isoxazol-5-yl}-phenoxy)-phenyl]-acetic acid ethyl ester], the pIC50 was 6.00 to 6.52.

The record behind these values is patent US20110301142A1, “ANTAGONISTS OF LYSOPHOSPHATIDIC ACID RECEPTORS” (priority 2008, published 2011).
